Results as given in publication PMC8740768 (Proceedings of the National Academy of Sciences of the …, 2021).
“Also recorded” adds a separate entry of the source. Like-named read-outs stand apart in the source and are kept apart here.

B1: protease-associated domain of vacuolar sorting receptor isoform 1 (VSR1-PA) (domain or fragment, Arabidopsis thaliana, UniProt P93026 20-182, looked up)
chain: RFVVEKNNLKVTSPDSIKGIYECAIGNFGVPQYGGTLVGTVVYPKSNQKACKSYSDFDISFKSKPGRLPTFVLIDRGDCYFTLKAWIAQQAGAAAILVADSKAEPLITMDTPEEDKSDADYLQNITIPSALITKTLGDSIKSALSGGDMVNMKLDWTESVPHP
B2: C-terminal peptide of CRU1 (YRVAAA) (peptide)
peptide: YRVAAA

What was measured:
[1] = tested on: soybean seeds; settings: cited from earlier work
[2] = tested on: VSR1-NT; experiment: Competitive peptide pull-down: elution of Cru1-ctVSD-bound VSR1-NT; parameters: species or system Arabidopsis thaliana; settings: 2 mM peptide in VSR binding buffer, 4C, 4 hours, T7 immunoblot
[3] = tested on: VSR1-PA; settings: cited from earlier work
[4] = tested on: VSR1-NT; experiment: Competitive peptide pull-down: elution of aleurain-ssVSD-bound VSR1-NT; parameters: species or system Arabidopsis thaliana; settings: 2 mM peptide in VSR binding buffer, 4C, 4 hours; T7 immunoblot
[5] = tested on: phaseolin; settings: cited from earlier work
[6] = tested on: PSV; settings: C terminus of phaseolin; cited from earlier work
[7] = tested on: VSR1; settings: cited from earlier work
[8] = tested on: VSR1-PA-R95M; experiment: Thermal shift assay; type: binding, Arabidopsis thaliana; settings: 5 mM peptide, 50 μM VSR1-PA-R95M, pH 7.1; n = 3; ns P > 0.05
[9] = target: B2; experiment: thermal shift assay
[10] = target: B1; experiment: differential scanning fluorimetry, isothermal analysis
[11] = target: B1; experiment: as above; remark: listed apart in the source
[12] = target: B1; experiment: crystal structure

612PLSSILRAFY621
Targeting of GFP to the PSV [1]: sufficient to target GFP to the PSV in soybean seeds

ADSNPIRPVT [aleurain-ssVSD, reference compound]
Elution of Cru1-ctVSD-bound VSR1-NT [2]: not by aleurain-ssVSD
Interaction of VSR1-PA with ssVSD [3]: VSR1-PA binds to the residues (ADS) preceding the NPIR motif
Elution of aleurain-ssVSD-bound VSR1-NT [4]: eluted

AFVY
Effect of removing the C-terminal residues on phaseolin [5]: abolished aggregation of phaseolin and missorted it to the extracellular space
Targeting of seed proteins to the PSV [6]: essential for targeting seed proteins to the PSV

SYGRPRVAAA [Cru1]
Elution of Cru1-ctVSD-bound VSR1-NT ([2]; listed as Cru1-ctVSD): only eluted by ctVSD of CRU1
Binding to VSR1 ([7]; earlier studies): VSR1 could bind to the C-terminal peptide of CRU1; also recorded: VSR1 can bind to the C-terminal sequence
Calcium dependence of binding to VSR1 ([7]; pull-down assay): calcium-dependent
Elution of aleurain-ssVSD-bound VSR1-NT [4]: eluted

SYGRPRVAAAP [Cru1+P]
Elution of Cru1-ctVSD-bound VSR1-NT [2]: not by aleurain-ssVSD and Cru1+P
Elution of aleurain-ssVSD-bound VSR1-NT [4]: not eluted

YRVAAA
Change in Tm of VSR1-PA-R95M (in words) [8]: no significant change in the Tm of VSR1-PA-R95M

B1
increase of Tm [9]: 5.3 °C

B2
Kd [10]: 2600 µM
Kd [11]: 9600 µM

B3: YSDRFV peptide derived from the ctVSD of VL22 (peptide)
peptide: YSDRFV
Kd [10]: 1000 µM
Kd [11]: 3200 µM

B4: C-terminal pentapeptide (468RVAAA472) of CRU1 (peptide)
peptide: RVAAA
binding result [12]: binds
